Source: US20230365592A1 (Agios Pharmaceuticals, Inc., priority 2022, published 2023)

Target: T1, human PAH with the R408W mutation (Homo sapiens, UniProt P00439, R408W)
T1 construct: expressed in transfected cells
T1 sequence (P00439 1-452 R408W): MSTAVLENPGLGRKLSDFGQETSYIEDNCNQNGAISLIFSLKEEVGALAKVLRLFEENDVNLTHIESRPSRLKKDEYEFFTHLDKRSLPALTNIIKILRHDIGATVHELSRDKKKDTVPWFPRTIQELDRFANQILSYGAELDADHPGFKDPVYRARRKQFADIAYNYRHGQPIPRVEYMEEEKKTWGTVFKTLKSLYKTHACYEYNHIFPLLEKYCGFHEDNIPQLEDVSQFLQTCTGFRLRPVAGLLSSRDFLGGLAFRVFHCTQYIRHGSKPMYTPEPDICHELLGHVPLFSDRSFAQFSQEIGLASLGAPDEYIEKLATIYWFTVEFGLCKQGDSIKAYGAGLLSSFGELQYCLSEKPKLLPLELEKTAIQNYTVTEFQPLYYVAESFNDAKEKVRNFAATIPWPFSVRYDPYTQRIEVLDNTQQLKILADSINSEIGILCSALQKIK
Assay: Cell Based Phenylalanine Flux Assay;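 note: after compound treatment, cells received sepiapterin plus isotope-labelled Phenylalanine for 4 hours, then labelled Tyrosine in the medium was quantified, 10-point 2-fold dilution series run in duplicate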
Conditions: A375 cells expressing human PAH R408W; 24 hrs compound incubation; 13C-Tyrosine by LC-MS; average where tested multiple times; read-out: AC50

Row | AC50 | SMILES
1 | 1 to 5 µM | O=C(c1cnn2cc(C3CC3)ccc12)N1CCc2[nH]cnc2[C@H]1c1cc2cccc(C(F)F)n2n1 [Example 2462, (S)-(6-cyclopropylpyrazolo[1,5-a]pyridin-3-yl)(4-(7-(difluoromethyl)pyrazolo[1,5-a]pyridin-2-yl)-6,7-dihydro-1H-imidazo[4,5-c]pyridin-5(4H)-yl)methanone]
2 | 1 to 5 µM | COc1ccc2c(C(=O)N3CCc4[nH]cnc4[C@H]3c3cc4cccc(Cl)n4n3)cnn2c1 [Example 2464, (S)-(4-(7-chloropyrazolo[1,5-a]pyridin-2-yl)-6,7-dihydro-1H-imidazo[4,5-c]pyridin-5(4H)-yl)(6-methoxypyrazolo[1,5-a]pyridin-3-yl)methanone]
3 | > 5 µM | COc1ccc2c(C(=O)N3CCc4[nH]cnc4[C@@H]3c3cc4cccc(Cl)n4n3)cnn2c1 [Example 2465, (R)-(4-(7-chloropyrazolo[1,5-a]pyridin-2-yl)-6,7-dihydro-1H-imidazo[4,5-c]pyridin-5(4H)-yl)(6-methoxypyrazolo[1,5-a]pyridin-3-yl)methanone]
4 | 1 to 5 µM | Cc1nnc(N2CCc3[nH]cnc3[C@H]2c2cc3c(C(F)F)cccn3n2)o1 [Example 2467, (S)-2-(4-(4-(difluoromethyl)pyrazolo[1,5-a]pyridin-2-yl)-6,7-dihydro-1H-imidazo[4,5-c]pyridin-5(4H)-yl)-5-methyl-1,3,4-oxadiazole]
5 | 1 to 5 µM | O=C(c1nnc(-c2ncccn2)o1)N1CCc2[nH]cnc2[C@H]1c1cc2c(OC(F)(F)F)cccn2n1 [Example 2469, (S)-(5-(pyrimidin-2-yl)-1,3,4-oxadiazol-2-yl)(4-(4-(trifluoromethoxy)pyrazolo[1,5-a]pyridin-2-yl)-6,7-dihydro-1H-imidazo[4,5-c]pyridin-5(4H)-yl)methanone]
6 | 1 to 5 µM | COc1cccn2nc([C@@H]3c4nc[nH]c4CCN3C(=O)c3cnn4cc(C)ccc34)cc12 [Example 2470, (S)-(4-(4-methoxypyrazolo[1,5-a]pyridin-2-yl)-6,7-dihydro-1H-imidazo[4,5-c]pyridin-5(4H)-yl)(6-methylpyrazolo[1,5-a]pyridin-3-yl)methanone]
7 | > 5 µM | COc1cccn2nc([C@H]3c4nc[nH]c4CCN3C(=O)c3cnn4cc(C)ccc34)cc12 [Example 2471, (R)-(4-(4-methoxypyrazolo[1,5-a]pyridin-2-yl)-6,7-dihydro-1H-imidazo[4,5-c]pyridin-5(4H)-yl)(6-methylpyrazolo[1,5-a]pyridin-3-yl)methanone]
8 | 1 to 5 µM | CN(C)c1ccc2c(C(=O)N3CCc4[nH]cnc4[C@H]3c3cc4cccc(C(F)(F)F)n4n3)cnn2c1 [Example 2472, (S)-(6-(dimethylamino)pyrazolo[1,5-a]pyridin-3-yl)(4-(7-(trifluoromethyl)pyrazolo[1,5-a]pyridin-2-yl)-6,7-dihydro-1H-imidazo[4,5-c]pyridin-5(4H)-yl)methanone]
9 | 1 to 5 µM | CN(C)c1ccc2c(C(=O)N3CCc4[nH]cnc4[C@H]3c3cc4cccc(Cl)n4n3)cnn2c1 [Example 2474, (S)-(4-(7-chloropyrazolo[1,5-a]pyridin-2-yl)-6,7-dihydro-1H-imidazo[4,5-c]pyridin-5(4H)-yl)(6-(dimethylamino)pyrazolo[1,5-a]pyridin-3-yl)methanone]
10 | 1 to 5 µM | CN(C)CCc1ccc2c(C(=O)N3CCc4[nH]cnc4[C@H]3c3cc4c(C(F)(F)F)cccn4n3)cnn2c1 [Example 2476, (S)-(6-(2-(dimethylamino)ethyl)pyrazolo[1,5-a]pyridin-3-yl)(4-(4-(trifluoromethyl)pyrazolo[1,5-a]pyridin-2-yl)-6,7-dihydro-1H-imidazo[4,5-c]pyridin-5(4H)-yl)methanone]
11 | 1 to 5 µM | COCCc1ccc2c(C(=O)N3CCc4[nH]cnc4[C@H]3c3cc4c(C)cccn4n3)cnn2c1 [Example 2478, (S)-(6-(2-methoxyethyl)pyrazolo[1,5-a]pyridin-3-yl)(4-(4-methylpyrazolo[1,5-a]pyridin-2-yl)-6,7-dihydro-1H-imidazo[4,5-c]pyridin-5(4H)-yl)methanone]
12 | > 5 µM | Cc1cccn2nc([C@H]3c4nc[nH]c4CCN3c3nnc(C4CCC4)o3)cc12 [Example 2480, (R)-2-cyclobutyl-5-(4-(4-methylpyrazolo[1,5-a]pyridin-2-yl)-6,7-dihydro-1H-imidazo[4,5-c]pyridin-5(4H)-yl)-1,3,4-oxadiazole]
13 | 1 to 5 µM | Cc1cccn2nc([C@@H]3c4nc[nH]c4CCN3c3nnc(C4CCC4)o3)cc12 [Example 2481, (S)-2-cyclobutyl-5-(4-(4-methylpyrazolo[1,5-a]pyridin-2-yl)-6,7-dihydro-1H-imidazo[4,5-c]pyridin-5(4H)-yl)-1,3,4-oxadiazole]
14 | 1 to 5 µM | FC(F)(F)c1cccn2nc([C@@H]3c4nc[nH]c4CCN3c3nnc(C4CCC4)o3)cc12 [Example 2482, (S)-2-cyclobutyl-5-(4-(4-(trifluoromethyl)pyrazolo[1,5-a]pyridin-2-yl)-6,7-dihydro-1H-imidazo[4,5-c]pyridin-5(4H)-yl)-1,3,4-oxadiazole]
15 | 1 to 5 µM | FC(F)c1cccn2nc([C@@H]3c4nc[nH]c4CCN3c3nnc(C4CCC4)o3)cc12 [Example 2485, (S)-2-cyclobutyl-5-(4-(4-(difluoromethyl)pyrazolo[1,5-a]pyridin-2-yl)-6,7-dihydro-1H-imidazo[4,5-c]pyridin-5(4H)-yl)-1,3,4-oxadiazole]
16 | 1 to 5 µM | FC(F)c1cccc2cc([C@@H]3c4nc[nH]c4CCN3c3nnc(C(F)(F)F)o3)nn12 [Example 2487, (S)-2-(4-(7-(difluoromethyl)pyrazolo[1,5-a]pyridin-2-yl)-6,7-dihydro-1H-imidazo[4,5-c]pyridin-5(4H)-yl)-5-(trifluoromethyl)-1,3,4-oxadiazole]
17 | 1 to 5 µM | Cn1cc(-c2nnc(C(=O)N3CCc4[nH]cnc4[C@H]3c3cc4ccc(Br)cn4n3)o2)cn1 [Example 2488, (S)-(4-(6-bromopyrazolo[1,5-a]pyridin-2-yl)-1,4,6,7-tetrahydro-5H-imidazo[4,5-c]pyridin-5-yl)(5-(1-methyl-1H-pyrazol-4-yl)-1,3,4-oxadiazol-2-yl)methanone]
18 | 1 to 5 µM | FC(F)(F)c1nnc(N2CCc3[nH]cnc3[C@H]2c2cc3cccc(C(F)(F)F)n3n2)o1 [Example 2491, (S)-2-(trifluoromethyl)-5-(4-(7-(trifluoromethyl)pyrazolo[1,5-a]pyridin-2-yl)-1,4,6,7-tetrahydro-5H-imidazo[4,5-c]pyridin-5-yl)-1,3,4-oxadiazole]
19 | 1 to 5 µM | FC(F)(F)c1nnc(N2CCc3[nH]cnc3[C@H]2c2cc3cccc(Cl)n3n2)o1 [Example 2493, (S)-2-(4-(7-chloropyrazolo[1,5-a]pyridin-2-yl)-1,4,6,7-tetrahydro-5H-imidazo[4,5-c]pyridin-5-yl)-5-(trifluoromethyl)-1,3,4-oxadiazole]
20 | 1 to 5 µM | O=C(c1cnc(C2CC2)o1)N1CCc2[nH]cnc2[C@H]1c1cc2ccccn2n1 [Example 2496, (S)-(2-cyclopropyloxazol-5-yl)(4-(pyrazolo[1,5-a]pyridin-2-yl)-1,4,6,7-tetrahydro-5H-imidazo[4,5-c]pyridin-5-yl)methanone]
21 | 1 to 5 µM | Cc1cccn2nc([C@@H]3c4nc[nH]c4CCN3C(=O)c3cnc(-c4ccn(C)n4)o3)cc12 [Example 2499, (S)-(2-(1-methyl-1H-pyrazol-3-yl)oxazol-5-yl)(4-(4-methylpyrazolo[1,5-a]pyridin-2-yl)-1,4,6,7-tetrahydro-5H-imidazo[4,5-c]pyridin-5-yl)methanone]
22 | 1 to 5 µM | Cc1nnc(C(=O)N2CCc3[nH]cnc3[C@H]2c2cc3c(C)cccn3n2)s1 [Example 2501, (S)-(5-methyl-1,3,4-thiadiazol-2-yl)(4-(4-methylpyrazolo[1,5-a]pyridin-2-yl)-1,4,6,7-tetrahydro-5H-imidazo[4,5-c]pyridin-5-yl)methanone]
23 | 1 to 5 µM | Cc1cccn2nc([C@@H]3c4nc[nH]c4CCN3C(=O)c3nc4ccccc4s3)cc12 [Example 2502, (S)-benzo[d]thiazol-2-yl(4-(4-methylpyrazolo[1,5-a]pyridin-2-yl)-1,4,6,7-tetrahydro-5H-imidazo[4,5-c]pyridin-5-yl)methanone]
24 | > 5 µM | Cc1cccn2nc([C@H]3c4nc[nH]c4CCN3C(=O)c3nc4ccccc4s3)cc12 [Example 2503, (R)-benzo[d]thiazol-2-yl(4-(4-methylpyrazolo[1,5-a]pyridin-2-yl)-1,4,6,7-tetrahydro-5H-imidazo[4,5-c]pyridin-5-yl)methanone]
25 | > 5 µM | Cn1ccc(-c2ncc(C(=O)N3CCc4[nH]cnc4[C@@H]3c3cc4c(F)cccn4n3)o2)n1 [Example 2504, (R)-(4-(4-fluoropyrazolo[1,5-a]pyridin-2-yl)-1,4,6,7-tetrahydro-5H-imidazo[4,5-c]pyridin-5-yl)(2-(1-methyl-1H-pyrazol-3-yl)oxazol-5-yl)methanone]
26 | 1 to 5 µM | Cn1ccc(-c2ncc(C(=O)N3CCc4[nH]cnc4[C@H]3c3cc4c(F)cccn4n3)o2)n1 [Example 2505, (S)-(4-(4-fluoropyrazolo[1,5-a]pyridin-2-yl)-1,4,6,7-tetrahydro-5H-imidazo[4,5-c]pyridin-5-yl)(2-(1-methyl-1H-pyrazol-3-yl)oxazol-5-yl)methanone]
27 | 1 to 5 µM | Cn1cc(-c2ncc(C(=O)N3CCc4[nH]cnc4[C@H]3c3cc4c(C(F)(F)F)cccn4n3)o2)cn1 [Example 2506, (S)-(2-(1-methyl-1H-pyrazol-4-yl)oxazol-5-yl)(4-(4-(trifluoromethyl)pyrazolo[1,5-a]pyridin-2-yl)-1,4,6,7-tetrahydro-5H-imidazo[4,5-c]pyridin-5-yl)methanone]
